According to patent US7071168B2, “Anti-cancer compounds and methods related thereto” (The Regents of the University of Colorado, priority 1998, dated 2006):

Key:
[1] = test system: SCLC strain SHP-77; assay: Colorimetric tetrazolium (MTT) assay for cell survival, SCLC strain SHP-77; format: cell-based, human; conditions: for ED50 for cytotoxic activity, SCLC SHP-77: Table 5, included for comparison
Method in brief: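 MTT assay: cells seeded overnight, treated in triplicate across a concentration range for 4 days at 37 °C, 5% CO2. On day 5, MTT was added for 4 h; formazan was dissolved in acidified isopropanol and absorbance read.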

[2] = test system: bradykinin response of isolated guinea pig ileum; assay: Anti-bradykinin activity on isolated guinea pig ileum; conditions: for GPI: pA2 for bradykinin antagonist activity on isolated guinea pig ileum: higher numbers indicate higher potency
Method in brief: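 Terminal ileum segments (25 mm) from overnight-fasted male Hartley guinea pigs, in Krebs' solution gassed with 95% O2/5% CO2 under 1 g tension, equilibrated 1 h. Bradykinin concentration-effect curves constructed without and with test compounds.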

[3] = test system: SCLC strain SHP-77; assay: Inhibition of tumor growth in vivo in nude mice, SCLC strain SHP-77; conditions: for inhibition of growth in vivo of SCLC strain SHP-77: figure legends, nude mice, i.p. daily; for inhibition of growth of the SCLC line SHP-77: dose of 5 mg/kg/day
Description: Representative peptide and non-peptide compounds having high in vitro cytotoxic activity were tested against implanted tumors in vivo. Athymic nude mice were implanted subcutaneously with either single cell suspensions (2 million SCLC cells or 1 million NSCLC cells) or with small fragments (3×3 mm) of tumors minced from previously grown nude mouse heterotransplants. On the seventh day after tumor implantation groups of 5 mice bearing implants were injected intraperitoneally daily with the compounds being tested at 1, 5, or 10 mg/kg/day; control animals were injected with an equal volume of isotonic saline. Tumor size was measured with a caliper three times per week. Tumor volume was calculated by the formula: Volume (cc)=π×(length)×(width)^2/6

[4] = test system: DU14; assay: Cytotoxicity in vitro (MTT), prostate cancer cell line DU14; format: cell-based, human
Description: (§1) In general, Anti-bradykinin activity was determined by the classical guinea pig ileum assay and on Chinese hamster ovary (CHO) cells expressing cloned human bradykinin B2 receptors. Anti-tumor activity was determined on cultured human cancer cell lines using the standard tetrazolium (MTT) assay.
(§2) Cell growth and survival were measured by a rapid colorimetric assay based on the tetrazolium salt MTT (3-(4,5-dimethylthiazol-2-yl)-2,5-diphenyl tetrazolium bromide) (Mosmann, J Immunol. Methods 65: 55–63, 1983, with minor modifications). Briefly, 1,000 normal lung fibroblasts or normal epithelial BEAS-2B cells, 1,000 or 5,000 viable non-SCLC cells or 10,000 viable SCLC cells were plated in 100 μL of growth medium in 96-well flat-bottomed microtiter plates. Cells were incubated overnight to allow recovery. Compounds to be tested were added to the cells in triplicate in a range of concentrations and the cells were incubated at 37° C., 5% CO2, with 100% humidity. Control cells were treated in the same way without antagonists. […] Plates were incubated for 4 days, allowing sufficient time for cell replication and compound-induced cell death to occur. On day 5, 25 μL of a 2 mg/mL solution of MTT (Sigma) dissolved in RMPI-1640was added to each well. The plate was incubated for 4 h at 37° C. The supernate was removed and the blue formazan complex was dissolved by adding 100 μL of 0.02 N HCl in 75% isopropanol to all wells. Absorbance was immediately determined using a scanning multiwell plate reader. B9870 caused 50% cell death at a concentration of 0.15 μM under these conditions.

[5] = test system: TSU; assay: Cytotoxicity in vitro (MTT), prostate cancer cell line TSU; format: cell-based, human
Description: as §1, §2

[6] = test system: LNCa; assay: Cytotoxicity in vitro (MTT), prostate cancer cell line LNCa; format: cell-based, human
Description: as §1, §2

[7] = test system: PC-3; assay: Cytotoxicity in vitro (MTT), prostate cancer cell line PC-3; format: cell-based, human
Description: as §1, §2

[8] = test system: PPC1; assay: Cytotoxicity in vitro (MTT), prostate cancer cell line PPC1; format: cell-based, human
Description: as §1, §2

[9] = target: T1, cloned human bradykinin B2 receptors (Homo sapiens, UniProt P30411); assay: Anti-bradykinin activity on cloned human B2 receptors (CHO cells, Cytosensor microphysiometer); format: cell-based; conditions: for HUMAN: pA2 for bradykinin antagonist potency on cloned human B2 receptors: Table 1, higher numbers indicate higher potency
T1 sequence (P30411 1-391): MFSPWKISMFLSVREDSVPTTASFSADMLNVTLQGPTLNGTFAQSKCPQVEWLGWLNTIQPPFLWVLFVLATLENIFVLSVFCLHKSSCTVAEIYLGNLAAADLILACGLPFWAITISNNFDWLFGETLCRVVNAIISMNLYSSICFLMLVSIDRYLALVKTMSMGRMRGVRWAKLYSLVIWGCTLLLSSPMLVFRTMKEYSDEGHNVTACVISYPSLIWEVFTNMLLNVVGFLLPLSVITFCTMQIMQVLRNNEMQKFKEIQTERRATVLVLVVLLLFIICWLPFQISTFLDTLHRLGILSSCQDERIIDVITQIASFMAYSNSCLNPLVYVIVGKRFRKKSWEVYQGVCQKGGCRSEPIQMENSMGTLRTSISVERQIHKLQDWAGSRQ
Description: as §1
Chinese hamster ovary cells containing cloned and expressed human bradykinin B2 receptors were grown in cell cups of the Cytosensor microphysiometer in Ham's F-12 medium supplemented with sodium pyruvate and 10% FBS (Gibco 11765-054). For assay the cells were transferred to Ham's F-12 without bicarbonate or serum (Gibco 21700-075) and placed in the Cytosensor. Concentration-response curves were constructed to bradykinin in the presence or absence of new compounds.

[10] = isolated guinea pig ileum, pD2 of bradykinin is 7.4

Row | Molecule | MTT: ED50 for killing of SCLC strain SHP-77 in vitro ([1]; Table 1, SHP-77, MTT, 4 days) | GPI: pA2 for bradykinin antagonist activity on isolated guinea pig ileum ([2]; Table 1) | HUMAN: pA2 for bradykinin antagonist potency on cloned human B2 receptors [9] | also measured
1 | CC1(C)CC(NC(=O)[C@H](Cc2ccc(OCc3c(Cl)cccc3Cl)cc2)NC(=O)/C=C/c2c(F)c(F)c(F)c(F)c2F)CC(C)(C)N1 [M570, F5c-OC2Y-Atmp] |  |  |  | MTT: ED50 for killing of SCLC strain SHP-77 in vitro ([1]; SCLC strain SHP-77 in vitro): 1.8 µM; ED50 for cytotoxic activity, SCLC SHP-77 [1]: 1.8 µM; GPI: pA2 for bradykinin antagonist activity on isolated guinea pig ileum [2, 10]: 5.6; inhibition of growth in vivo of SCLC strain SHP-77 [3]: inhibition of growth; ED50 for cytotoxic activity, DU14 [4]: 1.2 µM; ED50 for cytotoxic activity, TSU [5]: 2.8 µM; ED50 for cytotoxic activity, LNCa [6]: 3.0 µM; ED50 for cytotoxic activity, PC-3 [7]: 1.6 µM; ED50 for cytotoxic activity, PPC1 [8]: 3.0 µM
2 | Atmp-Igl-Pac-α-Sbl-Lys-B9430 [M590] | 4.5 µM | 7.5 | Inact | ED50 for cytotoxic activity, SCLC SHP-77 [1]: 4.5 µM; ED50 for cytotoxic activity, DU14 [4]: 0.01 µM; ED50 for cytotoxic activity, TSU [5]: 7.0 µM; ED50 for cytotoxic activity, LNCa [6]: 7.0 µM; ED50 for cytotoxic activity, PC-3 [7]: 6.3 µM; ED50 for cytotoxic activity, PPC1 [8]: 12 µM
3 | DArg-Arg-Pro-Hyp-Gly-Igl-Ser-DIgl-Oic-Arg [B9430, reference compound] | 120 µM | 8.2 |  | pA2 (antagonist) on guinea pig ileum ([2]; text of Example XVII): 7.9; pA2 (antagonist) on cloned human B2 receptors ([9]; text of Example XVIII): 10.5; inhibition of growth in vivo of SCLC strain SHP-77 [3]: inhibition of growth
4 | DDD-(DArg-F5F-Arg)2 [M822] | 25 µM | Mixed |  | inhibition of growth in vivo of SCLC strain SHP-77 [3]: inhibition of growth
5 | DDD-(DArg-Igl-Arg-Matp)2 [M638] |  |  |  | MTT: ED50 for killing of SCLC strain SHP-77 in vitro ([1]; SCLC strain SHP-77 in vitro): 0.6 µM; GPI: pA2 for bradykinin antagonist activity on isolated guinea pig ileum [2, 10]: Inact; inhibition of growth in vivo of SCLC strain SHP-77 [3]: inhibition of growth
6 | DDD-(Lys-DArg-Arg-Pro-Hyp-Gly-Igl-Ser-DIgl-Oic-Arg)2 [B10054] | 0.3 µM | 7.1 |  | inhibition of growth of the SCLC line SHP-77 [3]: marked inhibition of growth; inhibition of growth in vivo of SCLC strain SHP-77 [3]: inhibition of growth
7 | DDD-(Lys-Pac-Gly-mABz-2Nal-NH2)2 [M494] | 33 µM | 5.1 | Inact | 
8 | DDD-(Pac-2Nal-Arg)2 [M484] | 25 µM | Inact | Inact | 
9 | DDD-(Pac-2Nal-Arg-NH2)2 [M498] | 24 µM | 4.9 | Inact | 
10 | DDD-(pABz-2Nal-Arg)2 [M400] | 22 µM | 5.1 | 11.5 | 
11 | DDD-(pABz-2Nal-Arg-NH2)2 [M500] | 40 µM | 0 | 11.4 | 
12 | F5c-2Nal-Arg [M446] | 60 µM | 4.7 | 9 | 
13 | F5c-2Nal-Arg-NH2 [M450] | 26 µM | 4.9 | Inact | 
14 | F5c-OBS-Arg [M520] | Inact | 6.1 | 7 | 
15 | F5c-OBT-Arg [M550] | 80 µM | Inact | Ag | 
16 | F5c-OC2Y-Arg [M512] | 70 µM | 5.7 | 11 | 
17 | F5c-hPhe-Arg [M420] | 60 µM | 7.0 | 10.9 | 
18 | SUIM-(DArg-Arg-Pro-Hyp-Gly-Igl-Ser-DIgl-Oic-Arg) [B9870-2, reference compound] | 0.15 µM | 8.4 |  | EC50 ([1]; MTT assay, text of Example XIX, read-out: concentration causing 50% cell death): 0.15 µM; ED50 for cytotoxic activity, SCLC SHP-77 [1]: 0.15 µM; inhibition of growth of the SCLC line SHP-77 [3]: marked inhibition of growth; ED50 for cytotoxic activity, DU14 [4]: 0.08 µM; ED50 for cytotoxic activity, TSU [5]: 6.5 µM; ED50 for cytotoxic activity, LNCa [6]: 3.7 µM; ED50 for cytotoxic activity, PC-3 [7]: 3.2 µM; ED50 for cytotoxic activity, PPC1 [8]: 4.3 µM
19 | α-DDD-(Lys-B9430-OMe)2 [M600] | 1.2 µM | 6.4 | Ag | 
